One block for each compound: values may come before it. Peptide text beside a SMILES is read from it.
Key:
[1] = Inhibition of C9 binding to C5b678 in […] activated human serum assessed as suppression of human erythrocyte lysis after 1 hr by ELISA
[2] = Inhibition of factor D in […]-activated human serum assessed as decrease in human erythrocyte lysis
[3] = Inhibition of factor D in […]-activated rat serum assessed as decrease in human erythrocyte lysis
[4] = Inhibition of human serum C1s-mediated lysis of rabbit Ab-sensitized sheep erythrocytes after 60 mins
[5] = Inhibition of human serum C2-mediated lysis of antibody-sensitized sheep red blood cells after 30 mins by UV-Vis spectrophotometric method

IC50 [1]: 0.5 µM
Compound: O=C(O)C1=C/C(=C(/c2ccc(O)c(C(=O)O)c2)c2cc(Cc3cc(C(c4ccc(O)c(C(=O)O)c4)c4ccc(O)c(C(=O)O)c4)cc(C(=O)O)c3O)cc(C(=O)O)c2O)C=CC1=O

IC50 [2]: 0.1 µM
IC50 [3]: 0.1 µM
Compound: CC(=O)Oc1ccc(-c2ccc(OC(C)=O)c(C(=O)O)c2)cc1C(=O)O

Compound: N=C(N)c1cc2ccc(OC(=O)c3cccs3)cc2s1
IC50 [4]: 0.046 µM

Compound: CC(=O)N[C@@H](CCCNC(=N)N)C(=O)N[C@@H](CC(C)C)C(=O)N[C@@H](CC(C)C)C(=O)N[C@@H](CC(C)C)C(=O)N[C@@H](C)C(=O)N[C@H](C=O)CCCNC(=N)N (Ac-RLLLAR-aldehyde)
IC50 [5]: 28 µM

IC50 [1]: 0.5 µM
Compound: O=C(O)C1=C/C(=C\c2cc(C(c3ccc(O)c(C(=O)O)c3)c3ccc(O)c(C(=O)O)c3)cc(C(=O)O)c2O)C=CC1=O

IC50 [1]: 0.5 µM
Compound: O=C(O)C1=CC(=C(c2ccc(O)c(C(=O)O)c2)c2ccc(O)c(C(=O)O)c2)C=CC1=O [MLS002153482]

IC50 [2]: 0.1 µM
IC50 [3]: 0.1 µM
Compound: CC(=O)Oc1ccc(Cc2ccc(OC(C)=O)c(C(=O)O)c2)cc1C(=O)O
